From paper PMC9182012, “Aza-Oxa-Triazole Based Macrocycles with Tunable Properties: Design, Synthesis, and Bioactivity” (Molecules, 2022)

How the values were obtained:
[1] = molecular target: bovine serum albumin (BSA) (Bos taurus, UniProt P02769); assay: Protein interaction by fluorescence quenching, Stern–Volmer binding constant; details: for Extent of binding with BSA, in words: fluorescence quenching, 10 µM BSA, pH 7.4, 25 °C; for Binding Constant, BSA: slope of Stern–Volmer plot (Io/I vs macrocycle concentration), 10 µM BSA in phosphate buffer pH 7.4, 2–100 µM macrocycle from 2 mM DMSO stock, 25 °C, excitation 280 nm, 3 min equilibration
Procedure: (§1) All the fluorescence spectra were recorded on a Perkin Elmer (Waltham, MA, USA) FL 6500 at 25 °C. The excitation wavelength of 280 nm and a slit width of 5 nm were used for excitation and emission. Next, 6.6 mg of BSA/HSA was dissolved in 10 mL of pH 7.4 phosphate buffer to make 10 μM BSA/HSA. The stock solutions of macrocycles were of 2 mM concentration dissolved in DMSO. The titrations were carried out in varied concentrations of macrocycles from 2 μM to 100 μM. Three minutes were given as the equilibration time after the addition of the solution. The Stern–Volmer plot was used to calculate the binding constant (slope) by plotting Io/I vs. the macrocycle concentration.
(§2) Figure 4 Fluorescence quenching of protein by MC7 at excitation wavelength 280 nm, (a) BSA and (b) HSA. To 10 µM protein solution in phosphate buffer (pH 7.4), 2–100 µM macrocycle solution was added at 25 °C. Inset: Stern–Volmer Plot; Io and I are the fluorescence intensity at 0 µM and the given concentration of the macrocycle, and the slope is considered as the binding constant. […]
(§3) 8.2 Fluorescence spectroscopy for protein interaction studies
(§4) 8.2.1 Experimental Procedure
(§5) 10 μM BSA was prepared by dissolving 6.6 mg of BSA in 10 mL of phosphate buffer of pH
(§6) 7.4. The macrocycles were dissolved in DMSO to make the stock solution of 2 mM concentration. 2 mL of the BSA control solution was taken in the fluorescence cuvette to take the emission at zero concentration of the compound. The titration was carried out by varying the concentration of macrocycle from 2 μM to 100 μM. An equilibration time of 3 minutes is given for each measurement after the addition of the solution. Binding constant were estimated from the Stern-Volmer plot by plotting I o/I vs concentration of the macrocycle. The slope of the graph was attributed as the binding constant.

[2] = molecular target: human serum albumin (HSA) (Homo sapiens, UniProt P02768); assay: as above; details: for Binding Constant, HSA: slope of Stern–Volmer plot (Io/I vs macrocycle concentration), 10 µM HSA in phosphate buffer pH 7.4, 2–100 µM macrocycle from 2 mM DMSO stock, 25 °C, excitation 280 nm, 3 min equilibration; for Extent of interaction with HSA, in words: fluorescence quenching, 10 µM HSA, pH 7.4, 25 °C
Procedure: as §1, §2, §3, §4, §5, §6

[3] = RP-HPLC retention time as measure of hydrophilicity/hydrophobicity; assay type: physicochemical; details: chromatographic, C18; acetonitrile and water with 0.1% formic acid, 5–95 % acetonitrile over 15 min; higher retention time = more hydrophobic
Excerpt: The bulk properties of the macrocycles depend on the functional groups on the side chain and backbone and the ring size. The platform for the tunability in the macrocyclic scaffold aided in the synthesis of molecules with a wide range of properties. The hydrophilicity/hydrophobicity of the macrocycles is an important property, primarily for biological applications. The tunable property of the synthesized macrocycles is attributed to the different retention times in the reverse-phase high-performance liquid chromatogram (RP-HPLC). Hydrophilic compounds elute first through the column, thus lowering the retention time, whereas a higher retention time corresponds to the comparatively hydrophobic compounds. From Figure 3a, it could be inferred that the macrocycles MC1–5 and MC7 are hydrophilic, whereas MC8 and MC6 are hydrophobic, as depicted by the higher retention times. The higher hydrophobicity is due to the aromatic rings, two benzyl groups in MC6 and a naphthyl group in MC8. Another property achieved by one of the macrocycles is the addition of fluorophoric group as the side chain. The resultant fluorescence could be exploited for various photophysical applications, including the development of fluorimetric sensors (Figure 3b).
A Shimadzu (Kyoto, Japan) LC-MS-8045 with a Sprite TARGA C18 column (40 × 2.1 mm, 5 µm) was used for the LC-MS analysis. The spectra were monitored at 254 nm and 210 nm with a positive mode for mass detection. Water and acetonitrile with 0.1% formic acid were used as eluting solvents A and B. […] HRMS was carried out in a Bruker, Maxis Impact and Waters (Billerica, MA, USA) ACQUITY H-CLASS + UPLC/XevoG2 XS QTOF instrument. A 500 MHz Bruker AV III was used to record the ^1H NMR spectrum. The data were analyzed by MestReNova (version 8.1.1). ^1H NMR shifts are reported in units of ppm relative to tetramethyl silane. […]
Figure 3 Properties of the macrocycles. […] Fluorescence spectrum of 10 μM MC8 in methanol upon excitation with a wavelength of 278 nm.

Chain of bovine serum albumin (BSA) (P02769 25-607): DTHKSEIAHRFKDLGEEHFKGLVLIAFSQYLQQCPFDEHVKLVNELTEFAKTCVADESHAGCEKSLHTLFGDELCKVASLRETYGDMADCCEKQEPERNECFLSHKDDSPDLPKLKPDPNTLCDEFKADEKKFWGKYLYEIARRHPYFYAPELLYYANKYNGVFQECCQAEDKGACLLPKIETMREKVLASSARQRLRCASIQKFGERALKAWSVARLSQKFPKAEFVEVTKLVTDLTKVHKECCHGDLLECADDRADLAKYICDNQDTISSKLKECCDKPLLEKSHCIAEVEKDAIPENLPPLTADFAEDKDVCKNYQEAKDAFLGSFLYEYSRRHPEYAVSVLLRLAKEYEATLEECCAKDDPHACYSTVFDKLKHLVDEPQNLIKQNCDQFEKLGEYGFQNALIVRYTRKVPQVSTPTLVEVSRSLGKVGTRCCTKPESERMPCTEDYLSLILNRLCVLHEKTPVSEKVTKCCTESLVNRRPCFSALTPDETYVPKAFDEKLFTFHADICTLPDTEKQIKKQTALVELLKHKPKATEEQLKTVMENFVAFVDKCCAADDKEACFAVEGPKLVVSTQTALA
Chain of human serum albumin (HSA) (P02768 25-609): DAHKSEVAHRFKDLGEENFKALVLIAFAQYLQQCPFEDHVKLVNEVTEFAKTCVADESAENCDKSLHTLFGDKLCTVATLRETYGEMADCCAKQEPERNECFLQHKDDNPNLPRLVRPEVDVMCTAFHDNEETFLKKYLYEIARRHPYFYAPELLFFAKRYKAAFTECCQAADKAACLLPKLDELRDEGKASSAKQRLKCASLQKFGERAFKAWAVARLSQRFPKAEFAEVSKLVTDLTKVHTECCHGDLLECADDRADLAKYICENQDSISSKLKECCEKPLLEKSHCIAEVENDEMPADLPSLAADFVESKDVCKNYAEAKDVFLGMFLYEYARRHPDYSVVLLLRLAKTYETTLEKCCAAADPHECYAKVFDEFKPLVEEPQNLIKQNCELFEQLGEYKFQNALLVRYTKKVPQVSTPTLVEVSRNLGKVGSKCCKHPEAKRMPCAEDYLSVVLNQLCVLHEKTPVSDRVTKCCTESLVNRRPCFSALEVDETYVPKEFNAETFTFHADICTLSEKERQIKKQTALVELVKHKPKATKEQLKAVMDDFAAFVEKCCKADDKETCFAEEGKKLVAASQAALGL

Row | SMILES | Extent of binding with BSA, in words [1] | Binding Constant, BSA [1] [M⁻¹] | Binding Constant, HSA [2] [M⁻¹] | Extent of interaction with HSA, in words [2] | Hydrophilicity/hydrophobicity inferred from RP-HPLC retention time [3]
1 | CCCN1CCOCc2cn(nn2)CCNCCn2cc(nn2)C1 [MC1] | moderate binding | 4600 | 4200 | – | –
2 | CC(C)N1CCOCc2cn(nn2)CCNCCn2cc(nn2)C1 [MC2] | moderate binding | 4000 | 4400 | – | –
3 | c1c2nnn1CCNCCn1cc(nn1)CN(C1CCCCC1)CCOC2 [MC3] | moderate binding | 4200 | 3500 | – | –
4 | CCN(CC)C(=O)CN1CCOCc2cn(nn2)CCNCCn2cc(nn2)C1 [MC4] | moderate binding | 9100 | 8400 | greater extent of interaction | –
5 | CN1CCN(C)Cc2cn(nn2)CCNCCn2cc(nn2)C1 [MC5] | negligible binding | 1400 | 3200 | – | –
6 | c1ccc(CN2CCN(Cc3ccccc3)Cc3cn(nn3)CCNCCn3cc(nn3)C2)cc1 [MC6] | negligible binding | 800 | 930 | lowest | hydrophobic
7 | c1c2nnn1CCNCCn1cc(nn1)COCCCCCCCCCCCCOC2 [MC7] | highest binding | 27100 | 15800 | highest interaction and quenching | hydrophilic
8 | c1ccc2cc(CN3CCOCc4cn(nn4)CCNCCn4cc(nn4)COCC3)ccc2c1 [MC8] | – | – | – | – | hydrophobic
